The source of these data is PMC11680790, “Structural and functional determination of peptide versus small molecule ligand binding at the apelin receptor” (Nature Communications, 2024).

Numbering of substitutions follows the chain as printed. pKd: −log10 of the molar value.

One data set has as its target T1, apelin receptor NxStaR (Homo sapiens, UniProt P35414, F214L/I224A/N112A/S298A/T207M/T87V).
T1 sequence (P35414 1-380 T87V/N112A/T207M/F214L/I224A/S298A): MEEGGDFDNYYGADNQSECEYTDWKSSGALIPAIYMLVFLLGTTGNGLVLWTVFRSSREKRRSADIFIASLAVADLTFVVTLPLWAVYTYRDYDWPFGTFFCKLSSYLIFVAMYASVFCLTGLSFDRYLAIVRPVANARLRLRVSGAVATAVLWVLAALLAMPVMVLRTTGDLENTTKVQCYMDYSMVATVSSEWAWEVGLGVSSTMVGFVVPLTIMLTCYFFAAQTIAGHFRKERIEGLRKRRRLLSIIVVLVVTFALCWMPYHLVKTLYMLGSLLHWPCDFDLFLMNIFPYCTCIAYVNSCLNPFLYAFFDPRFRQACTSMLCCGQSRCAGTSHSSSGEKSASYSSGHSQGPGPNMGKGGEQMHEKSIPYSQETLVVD
Kind of data set: SPR, pH dependence (Biacore 8K+), NxStaR. To be noted: 5% DMSO, 10 °C, single determination.

For another data set, the system named is R/H168 apelin receptor. Kind of data set: DiscoveRx cAMP assay, CHO-K1 transiently transfected, R/H168. It is filed as cell-based, human. From the text:
(§1) (A) ERK1/2 and (B) eNOS in PAECs and ERK1/2 in (C) control and (D) PAH PASMcs following treatment with 0.1% serum (control), […]
(§2) measures with Tukey’s post-test for multiple comparisons. […]
(§3) difference in down-stream signalling with the endogenous ligands used in our study.
(§4) However, dynamic mass redistribution assays are a widely used (over 400 references in Pubmed) and generally accepted robust label-free technology to measure ligand-induced changes in the mass of cells and provides an integrated cellular response, comprising multiple pathways and cellular events. We believe
(§5) DMR is robust for testing the function of apelin receptor variants, particularly when combined with our radioligand binding assays. […]
(§6) recommended.’ We thank the referee for the recommendation but we were not successful in generating additional data in the apelin receptor variants with downstream signalling functional assays that we carried […]
(§7) We have tried to test the function of apelin receptor variants in a DiscoveRx cAMP assay. The figure below […]
(§8) Provided in the assay kit, CHO-K1 cells stably expressing the apelin receptor (shown in green) responded as […]
(§9) the levels of forskolin stimulated cAMP accumulation and decreasing the fluorescent signal in relative li ght units (RLU). CHO-K1 cells transiently transfected in-house with either wild-type (black), T/M89 (red), or […]

The next data set is described as follows: Chrom logD. It is filed as physicochemical. Particulars: chromatographic.
In the next data set the target is T2, human apelin receptor (Homo sapiens, UniProt P35414).
T2 sequence (P35414 1-380): T1 sequence (P35414 1-380 T87V/N112A/T207M/F214L/I224A/S298A) with V87T, A112N, M207T, L214F, A224I, A298S
Also on record: method as in 2 sources, ref Read et al., 2016, PMID:27475715 ||| ref Read et al. Biochem Pharmacol. 2016. To be noted: cited from earlier work.

Another data set relates to apelin receptor. Kind of data set: DiscoveRx cAMP assay, CHO-K1 stably expressing the apelin receptor. Particulars: stably expressing CHO-K1, forskolin stimulated cAMP. It is filed as cell-based, human.
Excerpt: as §1, §2, §3, §4, §5, §6, §7, §8, §9

For data set [1], the system named is apelin receptor in human, rat and mouse heart. Also on record: method as in Read et al. Biochem Pharmacol. 2016. Particulars: ref Read et al. Biochem Pharmacol. 2016; cited from earlier work.
The subject of the next data set is anaesthetised rats. Details: method as in 2 sources, ref Read et al. Biochem Pharmacol 2016 ||| ref Yang et al., Circulation. 2017. To be noted: cited from earlier work.
The test system of a further data set is T/M89 apelin receptor. In words: DiscoveRx cAMP assay, CHO-K1 transiently transfected, T/M89. It is filed as cell-based, human.
Excerpt: as §1, §2, §3, §4, §5, §6, §7, §8, §9

Data set [2] deals with T3, R/H168^4.64 variant NxStaR (Homo sapiens, UniProt P35414, F214L/I224A/N112A/R168H/S298A/T207M/T87V).
T3 sequence (P35414 1-380 T87V/N112A/R168H/T207M/F214L/I224A/S298A): T1 sequence (P35414 1-380 T87V/N112A/T207M/F214L/I224A/S298A) with R168H
In words: SPR, pH dependence (Biacore 8K+), R/H168^4.64 NxStaR. Particulars: 5% DMSO, 10 °C, single determination.
Procedure: (§10) Both were equipped with a NTA sensor chip (Cytiva). […] 0.5 M EDTA pH 8.0 was injected for 60 s at 5 µL/min followed by a 60 s injection of run buffer containing 0.5 mM NiCl2. The surface was activated with a 1:1 mixture of 0.1 M NHS and 0.5 M EDC at a flow rate of 10 µL/min for 420 s. The receptors were injected at a concentration of 1 µM at 5 µL/min until a surface response of 5000 RU was achieved. The surface was equilibrated for 12 h in buffer before commencing experiments.
(§11) Compound and peptide binding was measured in pH 7.5 buffer previously described and in buffer at pH 6.0 comprising of 0.025 M MES, pH 6.0, 0.15 M NaCl, 0.02% DDM, 5% DMSO. The analyses were run in single-cycle format with four concentration points in a twofold dilution series. […] The association phase was 60 s for each concentration and the dissociation phase was 300 s. There were 4 blank cycles between compound injections.
(§12) The data were processed using Biacore T200 Evaluation Software (Version 2.0, Cytiva) and Biacore Insight Evaluation Software (Version 5.0, Cytiva). Sensorgrams were reference and blank subtracted before fitting with 1:1 binding model which accounted for drift, bulk shift and mass transport.

Data set [3] concerns the target T4, wild-type apelin receptor (Homo sapiens, UniProt P35414).
T4 construct: expressed in transfected cells; host or cells: CHO-K1 (ECACC 85051005), transient, pcDNA3.1
T4 sequence (P35414 1-380): T1 sequence (P35414 1-380 T87V/N112A/T207M/F214L/I224A/S298A) with V87T, A112N, M207T, L214F, A224I, A298S
Kind of data set: DiscoveRx cAMP assay, CHO-K1 transiently transfected, wild-type. Type of data set: cell-based. From the text:
(1 picture or pasted object on this page, not shown here)

The next data set has as its system rat. Also on record: method as in Yang et al., Circulation. 2017. Particulars: 21 days, rats; ref Yang et al., Circulation. 2017; cited from earlier work.
Where [4] appears, read: ref Read et al. Biochem Pharmacol. 2016.

Procedure for apelin receptor NxStaR: as §10, §11, §12

Regarding `CCC(CC)n1c(Cc2cccs2)nc2cc(C(=O)N[C@H](CC(=O)O)CC(C)C)ccc21` [CMF-019], the pKd on apelin receptor NxStaR (pH 6.0 (MES), 0.02% DDM) was 8.47; on apelin receptor NxStaR (pH 7.5, 0.02% DDM) it was 8.21; in data set [2] (pH 6.0 (MES), 0.02% DDM), 7.84; in data set [2] (pH 7.5, 0.02% DDM) it was 7.16. The cAMP response result in the data set on R/H168 apelin receptor is given as “did not show an observable response”; with apelin receptor, “reducing”; with T/M89 apelin receptor, “did not show an observable response”; in data set [3], “did not show an observable response”. Further, the “Chrom logD” value in “Chrom logD” was found to be 3.14. Also, the “bias factor cAMP vs receptor internalisation” value at human apelin receptor (setting [4]) is reported as ~ 5000. Further, the “bias factor cAMP vs β-arrestin recruitment” value on human apelin receptor (setting [4]) is listed as ~ 400. Moreover, the “cAMP potency versus [Pyr1]apelin-13” value on human apelin receptor (setting [4]) was “comparable potency to [Pyr1]apelin-13”. The “bias towards G protein pathway over beta-arrestin” value on human apelin receptor (ref Read et al., 2016, PMID:27475715) is on record as 2250. For the same compound, the “competition for specific binding of apelin” value in data set [1] is on record as “competes for the specific binding of apelin”. The “stroke volume and cardiac output” value in the data set on anaesthetised rats (anaesthetised rats, ref Read et al. Biochem Pharmacol 2016) was “increased stroke volume and cardiac output”. In addition, the peripheral arterial pressure entry in the data set with anaesthetised rats (i.v. CMF-019 potassium salt, anaesthetised rat, ref Read et al. Biochem Pharmacol 2016) is recorded as “reduced peripheral arterial pressure”. The left ventricular contractility entry in the data set with anaesthetised rats (i.v. CMF-019 potassium salt, anaesthetised rats, ref Read et al. Biochem Pharmacol 2016) is on record as “dose dependent increases in left ventricular contractility”.

Take “NCLQRRCMPLHSRVPFP [ELA, endogenous peptide Elabela/Toddler]”: in the data set with rat, the “blood pressure, chronic ELA treatment” value is “did not significantly affect systemic blood pressure”. The systemic vasodilatation result in the data set on anaesthetised rats (carotid artery catheterisation, ref Yang et al., Circulation. 2017) was “caused acute systemic vasodilatation”.
